Assays:
[1] = test system: primary melanoma sections; assay: In situ detection of ML-IAP-reactive CTL with multimerized HLA-A2/peptide complexes; parameters: species or system human; conditions: sections of primary melanoma from six patients
Text: In situ detection of ML-IAP-reactive CTL. Confocal laser scanning microscopy was used to detect CTL reacting with a Cy3-conjugated anti-CD8 antibody (red channel) and a fluorescein isothiocyanate-conjugated multimeric HLA-A2/ML-IAP280 construct (green channel) (first and second columns) or with a fluorescein isothiocyanate conjugated multimeric HLA-A2/ML-IAP245 construct (last column) in primary tumors from two HLA-A2-positive melanoma patients.
HLA-A2 and ML-IAP245/HLA-A2-specific monomers were multimerized using dextran molecules, which were conjugated with both streptavidin and fluorescein isothiocyanate. Multimerized MHC complexes were used to stain acetone-fixed, frozen material as described previously^11,48 and antigen-specific cells were visualized using a confocal laser microscope. Sections of primary melanoma from six patients were analyzed, and ML-IAP280- and ML-IAP245-reactive CTL could readily be detected in situ in the tumor microenvironment in two of the patients (FIG. 4).

[2] = test system: peripheral blood T cells or TIL from melanoma patients; assay: ELISPOT IFN-γ secretion assay, T-cell responses against HLA-A2 binding ML-IAP peptides; type: cell-based, human
Protocol: Peripheral blood was obtained from melanoma patients before vaccination and subsequent to a series of vaccinations. In order to identify peptide-specific T-cell precursors, peripheral blood lymphocytes (PBL) were used directly in the ELISPOT (designated direct ELISPOT). However, to extend the sensitivity of the ELISPOT assay, PBL were stimulated once in vitro prior to analysis^17,18. At day 0, PBL or crushed lymph nodes were thawed and plated in 2 ml/well at a concentration of 2×10^6 cells in 24-well plates (Nunc, Denmark) in X-vivo medium (Bio Whittaker, Walkersville, Md.), 5% heat-inactivated human serum, and 2 mM of L-glutamine in the presence of 10 μM of peptide. Two days later 20 IU/ml recombinant interleukin-2 (IL-2) (Chiron, Ratingen, Germany) was added to the cultures. The cultured cells were tested for reactivity in the ELISPOT on day 8.
The ELISPOT assay used to quantify peptide epitope specific interferon-7 releasing effector cells was adapted from Lalvani et al.^37, and Scheibenbogen et al.^38. Briefly, nitrocellulose bottomed 96-well plates (MultiScreen MAIP N45, Millipore) were coated overnight at 4° C. with 7.5 μg/ml of anti-IFN-γ antibody (1-D1K, Mabtech, Sweden) in 75 μl sterile PBS. Subsequently, the wells were washed six times with PBS, and non-specific binding were blocked by X-vivo medium for 2 hours at 37° C. Freshly isolated PBL or cells, which had been stimulated once in vitro, were added in duplicates at different cell concentrations (from 10^6 to 10^5 cells per well for non-stimulated PBL, and from 3×10^5-3×10^4 cells per well for PBL which had been stimulated once in vitro), in 100 μl X-vivo medium. Peptides were then added to each well to a final concentration of 2 μM and incubated overnight at 37° C.
The following day, media was discarded and the wells were washed (six times) with PBS containing 0.05% Tween (PBS/Tw) before the addition of biotinylated secondary antibody (7-B6-1-Biotin, Mabtech) at 0.5 μg/ml in 75 μl PBS containing 1% BSA and 0.02% NaN3 (PBS/BSA). The plates were incubated at room temperature for 2 hours. The wells were washed (six times) with PBS/Tw. Then 75 μl of Avidin-enzyme conjugate (AP-Avidin, Calbiochem) diluted 1:2000 in PBS/BSA were added to each well and incubated for 1 hour. The enzyme substrate NBT/BCIP was prepared freshly according to the manufacturers' instructions (Gibco, code 18280-016) and 75 μl were added to each well and incubated for 5-10 min. The reaction was terminated by washing with tap-water upon the emergence of dark purple spots. The spots were then counted using the AlphaImager System (Alpha Innotech, San Leandro, Calif., USA) and the peptide specific CTL frequency could be calculated as the number of spot-forming cells.
To extend the sensitivity of the ELISPOT assay, PBL were stimulated once in vitro prior to analysis^17,18. At day 0, PBL or crushed lymph nodes were thawed and plated in 2 ml/well at a concentration of 2×10^6 cells in 24-well plates (Nunc, Denmark) in X-vivo medium (Bio Whittaker, Walkersville, Md.), 5% heat-inactivated human serum, and 2 mM of L-glutamine in the presence of 10 μM of peptide. Two days later 20 IU/ml recombinant interleukin-2 (IL-2) (Chiron, Ratingen, Germany) was added to the cultures. The cultured cells were tested for reactivity in the ELISPOT on day 12.
The ELISPOT assay used to quantify peptide epitope-specific interferon-γ-releasing effector cells was performed as described previously^19. Briefly, nitrocellulose bottomed 96-well plates (MultiScreen MAIP N45, Millipore, Hedehusene, Denmark) were coated with anti-IFN-7 antibody (1-D1K, Mabtech, Nacka, Sweden). The wells were washed, blocked by X-vivo medium, and cells were added in duplicates at different cell concentrations. Peptides were then added to each well and the plates were incubated overnight. The following day, media was discarded and the wells were washed prior to addition of biotinylated secondary antibody (7-B6-1-Biotin, Mabtech). […]

**Q.** For `CC(C)C[C@H](NC(=O)[C@@H](N)CCCNC(=N)N)C(=O)N[C@@H](CCC(N)=O)C(=O)N[C@@H](CCC(=O)O)C(=O)N[C@@H](CCC(=O)O)C(=O)N[C@@H](CCCNC(=N)N)C(=O)N[C@H](C(=O)N[C@@H](CS)C(=O)N[C@@H](CCCCN)C(=O)N[C@H](C(=O)O)C(C)C)[C@@H](C)O` [ML-IAP245], which “patients with peptide-reactive CTL detected in situ in the tumor microenvironment” value [1] is on record?
**A.** two

**Q.** What about the “strength of spontaneous CTL response” value ([2]; TIL and PBL from melanoma patients, in words) of the same compound?
**A.** Weaker spontaneous responses

**Q.** What about the “TIL samples in which a response against the peptide was detected” value ([2]; TIL from melanoma patients (n=22), stimulated once in vitro with peptide, number of samples) of the same compound?
**A.** five

**Q.** What about the “PBL samples in which a response against the peptide was detected” value ([2]; peripheral blood T cells from melanoma patients (n=7), stimulated once in vitro with peptide, number of samples) of the same compound?
**A.** one
